This is an account of results in patent US12630829B2, “Gene encoding cytochrome P450 and use thereof” (KUMIAI CHEMICAL INDUSTRY CO., LTD., priority 2020, dated 2026).

Structures are written as SMILES.

Data set [1] deals with Arabidopsis thaliana having AK454412 forced expression. As to the kind of experiment: Fenquinotrione sensitivity test on MS solid medium, AK454412 forced expression. Format: in vivo. Particulars: 10,000 nM in MS solid medium, 22° C., about 10 days, evaluated subjectively. The protocol:
First, a binary vector, pMLH7133-AK454412_for At, for transforming Arabidopsis thaliana was produced. With the pET-22b-AK454412 produced in Example 1 used as a template, PCR was performed using a primer set of pMLH-tplb Xba IF (Fd) and pMLH-tplb Sac IF (Rv) to obtain a DNA fragment in which XbaI/SacI recognition sequence and 15 bases of In-Fusion recognition sequence were added to a terminal of full length CDS sequence of the AK454412 gene. The obtained DNA fragment and pMLH7133 vector, having been digested with the restriction enzymes XbaI/SacI, were linked to each other with In-Fusion HD Cloning Kit (Clontech) to produce a binary vector, pMLH7133-AK454412_for At, for transforming Arabidopsis thaliana (FIG. 8). The obtained construct was introduced into Agrobacterium EHA105 strain by an electroporation method. The transformation of Arabidopsis thaliana was performed by a floral dip method using this recombinant Agrobacterium.
With a sensitivity difference from wild type Arabidopsis thaliana used as an index, it was verified whether or not the created transformant had resistance to fenquinotrione. […] The sensitivity to this drug was evaluated subjectively in accordance with the degree of chlorosis of acting symptom. […]

In data set [2] the test system is AK369081 (barley-derived P450) co-expressed with TaCPR. Briefly: In vitro drug metabolism test of AK369081 protein against fenquinotrione. Format: in vitro ADME. The settings on record: test method and conditions of Example 1; AK369081 reaction plot. The procedure:
It was verified by in vitro metabolism test whether or not a novel wheat-derived P450 of AK454412 is involved in herbicide metabolism. As a compound having high safety against wheat, fenquinotrione was used. […] A solution after completing the enzymatic reaction was centrifuged at 15,000 rpm for 1 minute, and the obtained supernatant was filtered through a 0.45 μm filter and then tested by LC/MS. LC/MS conditions were as follows:
Specifically, in the same manner as in KJ541960, recombinant proteins of these genes were prepared to evaluate, by in vitro test, whether or not these have fenquinotrione metabolic activity. First, an expression vector was designed by inserting, between NdeI and EcoRI sites of pET-22b(+), a nucleotide sequence, which encoded a sequence obtained by removing the transmembrane region (AK375492: 35 N-terminal amino acid residues, AK369081: 37 N-terminal amino acid residues) of each of the genes of Accession Nos. AK375492 and AK369081, and adding the 6β sequence (MAKKTSS) to the N-terminal, and synthesis of artificial genes was requested of GenScript. Each of the synthesized expression vectors (6β AK375492 in pET-22b, 6β AK369081 in pET-22b) was co-introduced, together with pACYC-del31_TaCPR, into E. coli BL21 star (DE3) strain for protein expression (FIG. 15). […]

For data set [3], the system named is CYP81A6. Particulars: reported so far; cited from earlier work.

Take `COc1ccc(-n2c(=O)c(C(=O)C3C(=O)CCCC3=O)nc3c(Cl)cccc32)cc1` [fenquinotrione]: in data set [1], the chlorosis symptom entry is recorded as “not observed”. The “metabolism of fenquinotrione (generation of demethylated product as index)” value in data set [2] is “a peak of the demethylated product (RT=in the vicinity of 15.1) appeared”. Also, the “metabolic reactivity of CYP81A6 against the compound” value in data set [3] is listed as “exhibits metabolic reactivity”.
